Reference: patent US20220177508A1, “C10-Cyclic Substituted 13-Membered Macrolides and Uses Thereof” (Zikani Therapeutics, Inc., priority 2018, published 2022)
Converted amounts (≈) assume the structure as drawn.

How the values were obtained:
Assay type in all cases: cell-based
[1] = test system: S. aureus MP-12; test: Broth dilution MIC determination (CLSI), S. aureus MP-12; details: Staphylococcus aureus, MP12; strain MP-12, broth dilution
[2] = test system: E. coli MP-4; test: Broth dilution MIC determination (CLSI), E. coli MP-4; details: Escherichia coli, MP4; strain MP-4, broth dilution; read-out: MIC E. coli MP-4
[3] = test system: K. pneumoniae MP-546; test: Broth dilution MIC determination (CLSI), K. pneumoniae MP-546; details: Klebsiella pneumoniae, MP546; strain MP-546, broth dilution
[4] = test system: K. pneumoniae MP-648; test: Broth dilution MIC determination (CLSI), K. pneumoniae MP-648; details: Klebsiella pneumoniae, MP648; strain MP-648, broth dilution
[5] = test system: P. aeruginosa MP-3; test: Broth dilution MIC determination (CLSI), P. aeruginosa MP-3; details: Pseudomonas aeruginosa, MP3; strain MP-3, broth dilution
[6] = test system: A. baumannii MP-15; test: Broth dilution MIC determination (CLSI), A. baumannii MP-15; details: Acinetobacter baumannii, MP15; strain MP-15, broth dilution; read-out: MIC A. baumanii MP-15

Row | MIC [1] | MIC [2] | MIC [3] | MIC [4] | MIC [5] | MIC [6] | Compound
1 | 4 to 32 µg/mL (≈ 6.18 to 49.5 µM) | < 4 µg/mL | 4 to 32 µg/mL (≈ 6.18 to 49.5 µM) | 4 to 32 µg/mL (≈ 6.18 to 49.5 µM) | > 32 µg/mL | > 32 µg/mL | CO[C@]1(C)C[C@@H](C)CN(C)[C@H](C2CN(Cc3ccccn3)C2)COC(=O)C(C)(C)C(=O)[C@H](C)[C@H]1O[C@@H]1O[C@H](C)C[C@H](N(C)C)[C@H]1O [Compound 115, (3R,6R,8R,9R,10R)-9-(((2S,3R,4S,6R)-4-(dimethylamino)-3-hydroxy-6-methyltetrahydro-2H-pyran-2-yl)oxy)-8-methoxy-4,6,8,10,12,12-hexamethyl-3-(1-(pyridin-2-ylmethyl)azetidin-3-yl)-1-oxa-4-azacyclotridecane-11,13-dione]
2 | 4 to 32 µg/mL (≈ 6.18 to 49.5 µM) | < 4 µg/mL | 4 to 32 µg/mL (≈ 6.18 to 49.5 µM) | 4 to 32 µg/mL (≈ 6.18 to 49.5 µM) | > 32 µg/mL | > 32 µg/mL | CO[C@]1(C)C[C@@H](C)CN(C)[C@H](C2CN(Cc3cccnc3)C2)COC(=O)C(C)(C)C(=O)[C@H](C)[C@H]1O[C@@H]1O[C@H](C)C[C@H](N(C)C)[C@H]1O [Compound 119, (3R,6R,8R,9R,10R)-9-(((2S,3R,4S,6R)-4-(dimethylamino)-3-hydroxy-6-methyltetrahydro-2H-pyran-2-yl)oxy)-8-methoxy-4,6,8,10,12,12-hexamethyl-3-(1-(pyridin-3-ylmethyl)azetidin-3-yl)-1-oxa-4-azacyclotridecane-11,13-dione]
3 | > 32 µg/mL | 4 to 32 µg/mL (≈ 6.11 to 48.9 µM) | 4 to 32 µg/mL (≈ 6.11 to 48.9 µM) | > 32 µg/mL | > 32 µg/mL | > 32 µg/mL | CO[C@]1(C)C[C@@H](C)CN(C)[C@H](C2CN(C(=O)CN(C)C)C2)[C@@H](C)OC(=O)C(C)(C)C(=O)[C@H](C)[C@H]1O[C@@H]1O[C@H](C)C[C@H](N(C)C)[C@H]1O [Compound 120, (2R,3R,6R,8R,9R,10R)-9-(((2S,3R,4S,6R)-4-(dimethylamino)-3-hydroxy-6-methyltetrahydro-2H-pyran-2-yl)oxy)-3-(1-(dimethylglycyl)azetidin-3-yl)-8-methoxy-2,4,6,8,10,12,12-heptamethyl-1-oxa-4-azacyclotridecane-11,13-dione]
4 | 4 to 32 µg/mL (≈ 5.63 to 45 µM) | < 4 µg/mL | 4 to 32 µg/mL (≈ 5.63 to 45 µM) | 4 to 32 µg/mL (≈ 5.63 to 45 µM) | > 32 µg/mL | > 32 µg/mL | CCN(C)CC(C)(C)CC(=O)N1CC([C@@H]2COC(=O)C(C)(C)C(=O)[C@H](C)[C@@H](O[C@@H]3O[C@H](C)C[C@H](N(C)C)[C@H]3O)[C@](C)(OC)C[C@@H](C)CN2C)C1 [Compound 122, (3R,6R,8R,9R,10R)-9-(((2S,3R,4S,6R)-4-(dimethylamino)-3-hydroxy-6-methyltetrahydro-2H-pyran-2-yl)oxy)-3-(1-(4-(ethyl(methyl)amino)-3,3-dimethylbutanoyl)azetidin-3-yl)-8-methoxy-4,6,8,10,12,12-hexamethyl-1-oxa-4-azacyclotridecane-11,13-dione]
5 | 4 to 32 µg/mL (≈ 6.1 to 48.8 µM) | < 4 µg/mL | < 4 µg/mL | 4 to 32 µg/mL (≈ 6.1 to 48.8 µM) | > 32 µg/mL | > 32 µg/mL | COCC(C)N1CCC([C@H]2COC(=O)C(C)(C)C(=O)[C@H](C)[C@@H](O[C@@H]3O[C@H](C)C[C@H](N(C)C)[C@H]3O)[C@](C)(OC)C[C@@H](C)CN2C)CC1 (stereo partly drawn) [Compound 124, (3S,6R,8R,9R,10R)-9-(((2S,3R,4S,6R)-4-(dimethylamino)-3-hydroxy-6-methyltetrahydro-2H-pyran-2-yl)oxy)-8-methoxy-3-(1-(1-methoxypropan-2-yl)piperidin-4-yl)-4,6,8,10,12,12-hexamethyl-1-oxa-4-azacyclotridecane-11,13-dione]
6 | > 32 µg/mL | < 4 µg/mL | 4 to 32 µg/mL (≈ 5.74 to 45.9 µM) | 4 to 32 µg/mL (≈ 5.74 to 45.9 µM) | > 32 µg/mL | > 32 µg/mL | CO[C@]1(C)C[C@@H](C)CN(C)[C@H](C2CN(C(=O)CCN(C)CC(C)C)C2)COC(=O)C(C)(C)C(=O)[C@H](C)[C@H]1O[C@@H]1O[C@H](C)C[C@H](N(C)C)[C@H]1O [Compound 125, (3R,6R,8R,9R,10R)-9-(((2S,3R,4S,6R)-4-(dimethylamino)-3-hydroxy-6-methyltetrahydro-2H-pyran-2-yl)oxy)-3-(1-(3-(isobutyl(methyl)amino)propanoyl)azetidin-3-yl)-8-methoxy-4,6,8,10,12,12-hexamethyl-1-oxa-4-azacyclotridecane-11,13-dione]
7 | 4 to 32 µg/mL (≈ 5.66 to 45.3 µM) | < 4 µg/mL | 4 to 32 µg/mL (≈ 5.66 to 45.3 µM) | 4 to 32 µg/mL (≈ 5.66 to 45.3 µM) | > 32 µg/mL | > 32 µg/mL | CO[C@]1(C)C[C@@H](C)CN(C)[C@H](C2CN(C(=O)[C@H]3CCN(CC4CC4)C3)C2)COC(=O)C(C)(C)C(=O)[C@H](C)[C@H]1O[C@@H]1O[C@H](C)C[C@H](N(C)C)[C@H]1O [Compound 126, (3R,6R,8R,9R,10R)-3-(1-((S)-1-(cyclopropylmethyl)pyrrolidine-3-carbonyl)azetidin-3-yl)-9-(((2S,3R,4S,6R)-4-(dimethylamino)-3-hydroxy-6-methyltetrahydro-2H-pyran-2-yl)oxy)-8-methoxy-4,6,8,10,12,12-hexamethyl-1-oxa-4-azacyclotridecane-11,13-dione]
8 | 4 to 32 µg/mL (≈ 6.25 to 50 µM) | < 4 µg/mL | 4 to 32 µg/mL (≈ 6.25 to 50 µM) | 4 to 32 µg/mL (≈ 6.25 to 50 µM) | > 32 µg/mL | > 32 µg/mL | CO[C@]1(C)C[C@@H](C)CN(C)[C@H](C2CN(CC3CCOC3)C2)COC(=O)C(C)(C)C(=O)[C@H](C)[C@H]1O[C@@H]1O[C@H](C)C[C@H](N(C)C)[C@H]1O (stereo partly drawn) [Compound 127, (3R,6R,8R,9R,10R)-9-(((2S,3R,4S,6R)-4-(dimethylamino)-3-hydroxy-6-methyltetrahydro-2H-pyran-2-yl)oxy)-8-methoxy-4,6,8,10,12,12-hexamethyl-3-(1-((tetrahydrofuran-3-yl)methyl)azetidin-3-yl)-1-oxa-4-azacyclotridecane-11,13-dione]

Further lines, the molecule ahead of its results:

Row | Compound | MIC [1] | MIC [2] | MIC [3] | MIC [4] | MIC [5] | MIC [6]
9 | CCCN1C[C@H](C)C[C@@](C)(OC)[C@H](O[C@@H]2O[C@H](C)C[C@H](N(C)C)[C@H]2O)[C@@H](C)C(=O)C(C)(C)C(=O)OC[C@H]1[C@H]1C[C@H](N(C)CC2CC2)C1 [Compound 95, (3R,6R,8R,9R,10R)-3-((1r,3R)-3-((cyclopropylmethyl)(methyl)amino)cyclobutyl)-9-(((2S,3R,4S,6R)-4-(dimethylamino)-3-hydroxy-6-methyltetrahydro-2H-pyran-2-yl)oxy)-8-methoxy-6,8,10,12,12-pentamethyl-4-propyl-1-oxa-4-azacyclotridecane-11,13-dione] | 4 to 32 µg/mL (≈ 6.01 to 48.1 µM) | < 4 µg/mL | < 4 µg/mL | 4 to 32 µg/mL (≈ 6.01 to 48.1 µM) | > 32 µg/mL | > 32 µg/mL
10 | CO[C@]1(C)C[C@@H](C)CN(C)[C@H](C2CN(CC3CCCC3)C2)COC(=O)C(C)(C)C(=O)[C@H](C)[C@H]1O[C@@H]1O[C@H](C)C[C@H](N(C)C)[C@H]1O [Compound 103, (3R,6R,8R,9R,10R)-3-(1-(cyclopentylmethyl)azetidin-3-yl)-9-(((2S,3R,4S,6R)-4-(dimethylamino)-3-hydroxy-6-methyltetrahydro-2H-pyran-2-yl)oxy)-8-methoxy-4,6,8,10,12,12-hexamethyl-1-oxa-4-azacyclotridecane-11,13-dione] | 4 to 32 µg/mL (≈ 6.27 to 50.2 µM) | < 4 µg/mL | < 4 µg/mL | 4 to 32 µg/mL (≈ 6.27 to 50.2 µM) | > 32 µg/mL | 4 to 32 µg/mL (≈ 6.27 to 50.2 µM)
11 | CO[C@]1(C)C[C@@H](C)CN(C)[C@@H](C2CCN(CC3CC3)CC2)COC(=O)C(C)(C)C(=O)[C@H](C)[C@H]1O[C@@H]1O[C@H](C)C[C@H](N(C)C)[C@H]1O [Compound 108, (3S,6R,8R,9R,10R)-3-(1-(cyclopropylmethyl)piperidin-4-yl)-9-(((2S,3R,4S,6R)-4-(dimethylamino)-3-hydroxy-6-methyltetrahydro-2H-pyran-2-yl)oxy)-8-methoxy-4,6,8,10,12,12-hexamethyl-1-oxa-4-azacyclotridecane-11,13-dione] | 4 to 32 µg/mL (≈ 6.27 to 50.2 µM) | < 4 µg/mL | < 4 µg/mL | < 4 µg/mL | > 32 µg/mL | > 32 µg/mL
12 | CO[C@]1(C)C[C@@H](C)CN(C)[C@H](C2CN(C(=O)[C@@H]3CCN(C)C3)C2)COC(=O)C(C)(C)C(=O)[C@H](C)[C@H]1O[C@@H]1O[C@H](C)C[C@H](N(C)C)[C@H]1O [Compound 111, (3R,6R,8R,9R,10R)-9-(((2S,3R,4S,6R)-4-(dimethylamino)-3-hydroxy-6-methyltetrahydro-2H-pyran-2-yl)oxy)-8-methoxy-4,6,8,10,12,12-hexamethyl-3-(1-((R)-1-methylpyrrolidine-3-carbonyl)azetidin-3-yl)-1-oxa-4-azacyclotridecane-11,13-dione] | 4 to 32 µg/mL (≈ 6 to 48 µM) | 4 to 32 µg/mL (≈ 6 to 48 µM) | 4 to 32 µg/mL (≈ 6 to 48 µM) | 4 to 32 µg/mL (≈ 6 to 48 µM) | > 32 µg/mL | > 32 µg/mL
13 | CO[C@]1(C)C[C@@H](C)CN(C)[C@H](C2CN(CC(C)(C)C)C2)COC(=O)C(C)(C)C(=O)[C@H](C)[C@H]1O[C@@H]1O[C@H](C)C[C@H](N(C)C)[C@H]1O [Compound 114, (3R,6R,8R,9R,10R)-9-(((2S,3R,4S,6R)-4-(dimethylamino)-3-hydroxy-6-methyltetrahydro-2H-pyran-2-yl)oxy)-8-methoxy-4,6,8,10,12,12-hexamethyl-3-(1-neopentylazetidin-3-yl)-1-oxa-4-azacyclotridecane-11,13-dione] | 4 to 32 µg/mL (≈ 6.39 to 51.1 µM) | < 4 µg/mL | < 4 µg/mL | 4 to 32 µg/mL (≈ 6.39 to 51.1 µM) | > 32 µg/mL | > 32 µg/mL
